Results on 3 compounds are retold here after US9181305B2, “Exendin-4 peptide analogues” (SANOFI, priority 2012, dated 2015).

*1 amine or outer side, *2 acyl side, *3 side chain or, on linkers, in order; H or OH if unused. Where a SMILES comes first, the peptide text is derived from it. Side-chain parts run from the residue outwards. [ ]: non-standard residue; d: D form. The star is where a group is joined. γGlu = O=C(O)[C@H](CCC(=O)[*:2])N[*:1]; Palmitoyl = CCCCCCCCCCCCCCCC(=O)*; Aib = CC(C)(N)C(=O)O

The target of this test is T1, human GLP-1 receptor (hGLP-1 R) (Homo sapiens, UniProt P43220).
T1 construct: expressed in transfected cells; host or cells: HEK-293
T1 sequence (P43220 24-463): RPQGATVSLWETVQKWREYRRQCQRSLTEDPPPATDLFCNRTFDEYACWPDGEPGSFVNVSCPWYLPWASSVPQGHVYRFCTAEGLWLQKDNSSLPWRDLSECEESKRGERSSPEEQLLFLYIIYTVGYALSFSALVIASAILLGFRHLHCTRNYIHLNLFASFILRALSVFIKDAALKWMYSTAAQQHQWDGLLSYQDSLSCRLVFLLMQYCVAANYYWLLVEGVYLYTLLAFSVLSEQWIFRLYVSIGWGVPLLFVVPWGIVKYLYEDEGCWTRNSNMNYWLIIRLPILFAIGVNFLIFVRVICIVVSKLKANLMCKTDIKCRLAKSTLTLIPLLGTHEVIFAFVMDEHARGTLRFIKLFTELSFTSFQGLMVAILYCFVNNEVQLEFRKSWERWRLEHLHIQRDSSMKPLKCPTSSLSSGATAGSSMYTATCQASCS
Put plainly: cAMP response (HTRF) of HEK-293 cells stably expressing human GLP-1 receptor. It is filed as cell-based. The following applies: HEK-293 cells expressing human GLP-1 receptor, cAMP formation. On the procedure: cAMP content of cells was determined using a kit from Cisbio Corp. (cat. no. 62AM4PEC) based on HTRF (Homogenous Time Resolved Fluorescence). For preparation, cells were split into T175 culture flasks and grown overnight to near confluency in medium (DMEM/10% FBS). Medium was then removed and cells washed with PBS lacking calcium and magnesium, followed by proteinase treatment with accutase (Sigma-Aldrich cat. no. A6964). Detached cells were washed and resuspended in assay buffer (1×HBSS; 20 mM HEPES, 0.1% BSA, 2 mM IBMX) and cellular density determined. […] For measurement, 25 μl of test compound in assay buffer was added to the wells, followed by incubation for 30 minutes at room temperature.
On the technique in general: Time-resolved FRET reads energy transfer from a long-lived donor to a nearby acceptor.

Compound `CCCCCCCCCCCCCCCC(=O)N[C@@H](CCC(=O)NCCCC[C@H](NC(=O)[C@H](CO)NC(=O)[C@@H]1CCCN1C(=O)[C@@H]1CCCN1C(=O)[C@@H]1CCCN1C(=O)[C@H](C)NC(=O)CNC(=O)[C@H](CO)NC(=O)[C@H](CO)NC(=O)[C@@H]1CCCN1C(=O)CNC(=O)CNC(=O)[C@H](CC(N)=O)NC(=O)[C@H](CCCCN)NC(=O)[C@H](CC(C)C)NC(=O)[C@H](Cc1c[nH]c2ccccc12)NC(=O)[C@H](CCC(=O)O)NC(=O)[C@@H](NC(=O)[C@H](Cc1ccccc1)NC(=O)[C@H](CC(=O)O)NC(=O)[C@H](CCC(N)=O)NC(=O)[C@H](C)NC(=O)[C@H](CCCNC(=N)N)NC(=O)[C@H](CCCNC(=N)N)NC(=O)[C@H](CO)NC(=O)[C@H](CCC(=O)O)NC(=O)[C@H](CCSC)NC(=O)[C@H](CCC(N)=O)NC(=O)[C@H](CCCCN)NC(=O)[C@H](CO)NC(=O)[C@H](CC(C)C)NC(=O)[C@H](CC(=O)O)NC(=O)[C@H](CO)NC(=O)[C@@H](NC(=O)[C@H](Cc1ccccc1)NC(=O)[C@@H](NC(=O)CNC(=O)[C@H](CCC(N)=O)NC(=O)[C@@H](CO)NC(=O)[C@@H](N)Cc1c[nH]cn1)[C@@H](C)O)[C@@H](C)O)[C@@H](C)CC)C(N)=O)C(=O)O` [(61)] (H-H[dS]QGTFTSDLSKQMESRRAQDFIEWLKNGGPSSGAPPPSK([γGlu-Palmitoyl])-NH2) had an EC50 of 4.2 pM.
For `CCCCCCCCCCCCCCCC(=O)N[C@@H](CCC(=O)NCCCC[C@H](NC(=O)[C@H](CO)NC(=O)[C@@H]1CCCN1C(=O)[C@@H]1CCCN1C(=O)[C@@H]1CCCN1C(=O)[C@H](C)NC(=O)CNC(=O)[C@H](CO)NC(=O)[C@H](CO)NC(=O)[C@@H]1CCCN1C(=O)CNC(=O)CNC(=O)[C@H](CC(N)=O)NC(=O)[C@H](CCCCN)NC(=O)[C@H](CC(C)C)NC(=O)[C@H](Cc1c[nH]c2ccccc12)NC(=O)[C@H](CCC(=O)O)NC(=O)[C@@H](NC(=O)[C@H](Cc1ccccc1)NC(=O)[C@H](CC(=O)O)NC(=O)[C@H](CCC(N)=O)NC(=O)[C@H](C)NC(=O)[C@H](CCCNC(=N)N)NC(=O)[C@H](CCCNC(=N)N)NC(=O)[C@H](CCCCN)NC(=O)[C@H](CC(=O)O)NC(=O)[C@H](CCSC)NC(=O)[C@H](CCC(N)=O)NC(=O)[C@H](CCCCN)NC(=O)[C@H](CO)NC(=O)[C@H](CC(C)C)NC(=O)[C@H](CC(=O)O)NC(=O)[C@H](CO)NC(=O)[C@@H](NC(=O)[C@H](Cc1ccccc1)NC(=O)[C@@H](NC(=O)CNC(=O)[C@H](CCC(N)=O)NC(=O)[C@@H](CO)NC(=O)[C@@H](N)Cc1c[nH]cn1)[C@@H](C)O)[C@@H](C)O)[C@@H](C)CC)C(N)=O)C(=O)O` [(69)] (H-H[dS]QGTFTSDLSKQMDKRRAQDFIEWLKNGGPSSGAPPPSK([γGlu-Palmitoyl])-NH2) the value was 7.6 pM.
To `CCCCCCCCCCCCCCCC(=O)N[C@@H](CCC(=O)NCCCC[C@H](NC(=O)[C@H](CO)NC(=O)[C@@H]1CCCN1C(=O)[C@@H]1CCCN1C(=O)[C@@H]1CCCN1C(=O)[C@H](C)NC(=O)CNC(=O)[C@H](CO)NC(=O)[C@H](CO)NC(=O)[C@@H]1CCCN1C(=O)CNC(=O)CNC(=O)C(C)(C)NC(=O)[C@H](CCCCN)NC(=O)[C@H](CC(C)C)NC(=O)[C@H](Cc1c[nH]c2ccccc12)NC(=O)[C@H](CCC(=O)O)NC(=O)[C@@H](NC(=O)[C@H](Cc1ccccc1)NC(=O)[C@H](CC(=O)O)NC(=O)[C@H](CCC(N)=O)NC(=O)[C@H](C)NC(=O)[C@H](CCCNC(=N)N)NC(=O)[C@H](CCCNC(=N)N)NC(=O)[C@H](CO)NC(=O)[C@H](CC(=O)O)NC(=O)[C@H](CCSC)NC(=O)[C@H](CCC(N)=O)NC(=O)[C@H](CCCCN)NC(=O)[C@H](CO)NC(=O)[C@H](CC(C)C)NC(=O)[C@H](CC(=O)O)NC(=O)[C@H](CO)NC(=O)[C@@H](NC(=O)[C@H](Cc1ccccc1)NC(=O)[C@@H](NC(=O)CNC(=O)[C@H](CCC(N)=O)NC(=O)[C@@H](CO)NC(=O)[C@@H](N)Cc1c[nH]cn1)[C@@H](C)O)[C@@H](C)O)[C@@H](C)CC)C(N)=O)C(=O)O` [(72)] (H-H[dS]QGTFTSDLSKQMDSRRAQDFIEWLK[Aib]GGPSSGAPPPSK([γGlu-Palmitoyl])-NH2) belongs 5.2 pM.

The EC50 is the concentration needed to bring the measured effect to its halfway point. Read a high EC50 as a less potent agent.
